From patent publication US7541495B2, “para-alkyl-substituted N-(4-hydroxy-3-methoxy-benzyl)-cinnamamides, pharmaceutical compositions and uses thereof” (Gruenenthal GmbH, priority 2004, dated 2009)

Tests used:
[1] = molecular target: T1, rat vanilloid receptor 1 (VR1/TRPV1) (Rattus norvegicus, UniProt O35433); experiment: FLIPR Ca2+ influx functional study on rat vanilloid receptor 1; format: cell-based; details: CHO K1 cells transfected with rat VR1; for Emax at 10 µM: test substance 10 μM, Ca2+ signal relative to 10 μM capsaicin, read-out: VR1 (Rat) (% Stimulation compared with 10 μM CP)
T1 construct: expressed in transfected cells; host or cells: CHO K1 cells (ECACC)
T1 sequence (O35433 whole entry): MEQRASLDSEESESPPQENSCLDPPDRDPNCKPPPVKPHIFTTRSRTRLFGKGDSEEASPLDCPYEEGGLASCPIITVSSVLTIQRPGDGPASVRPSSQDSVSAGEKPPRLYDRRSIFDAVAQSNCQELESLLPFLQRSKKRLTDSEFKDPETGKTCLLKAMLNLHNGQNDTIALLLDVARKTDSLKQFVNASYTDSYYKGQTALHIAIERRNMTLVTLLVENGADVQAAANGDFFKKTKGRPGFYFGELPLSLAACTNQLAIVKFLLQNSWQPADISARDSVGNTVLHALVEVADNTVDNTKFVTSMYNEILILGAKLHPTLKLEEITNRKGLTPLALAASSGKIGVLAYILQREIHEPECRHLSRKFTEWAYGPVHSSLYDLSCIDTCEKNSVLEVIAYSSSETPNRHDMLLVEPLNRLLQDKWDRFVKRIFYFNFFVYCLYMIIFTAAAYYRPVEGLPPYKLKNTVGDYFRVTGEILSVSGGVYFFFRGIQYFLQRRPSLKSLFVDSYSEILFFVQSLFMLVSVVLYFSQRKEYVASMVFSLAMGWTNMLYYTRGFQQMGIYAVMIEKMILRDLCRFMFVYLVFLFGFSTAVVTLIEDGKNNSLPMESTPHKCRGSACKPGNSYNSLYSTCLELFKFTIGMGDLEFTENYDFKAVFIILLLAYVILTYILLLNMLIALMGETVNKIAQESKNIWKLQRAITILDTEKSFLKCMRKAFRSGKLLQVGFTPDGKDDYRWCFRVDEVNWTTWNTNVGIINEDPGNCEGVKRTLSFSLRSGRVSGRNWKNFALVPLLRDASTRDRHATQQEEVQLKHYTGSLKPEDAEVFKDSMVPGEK
From the text: (§1) 1. Functional Study on the Vanilloid Receptor 1 (VR1/TRPV1 Receptor)
(§2) The agonist activity or antagonist activity of the substances to be tested on the vanilloid receptor 1 (VR1/TRPV1) of the species human and rat can be determined using the following assay. According to this assay, the Ca^2+ influx through the channel is quantified by means of a Ca^2+-sensitive dye (type Fluo-4, Molecular Probes Europe BV, Leiden, Netherlands) in the Fluorescent Imaging Plate Reader (FLIPR, Molecular Devices, Sunnyvale, USA).
(§3) Chinese hamster ovary cells (CHO K1 cells, European Collection of Cell Cultures (ECACC), England) are stably transfected with the human or rat vanilloid receptor 1 (VR1) gene. For functional studies, these cells are plated out in a density of 25,000 cells/well on poly-D-lysine-coated, black 96-well plates having a clear base (BD Biosciences, Heidelberg, Germany). The cells are incubated overnight at 37° C. and 5% CO2 in culture medium (Nutrient Mixture Ham's F12, Gibco Invitrogen GmbH, Karlsruhe, Germany) with 10% v/v of FBS (fetal bovine serum, Gibco Invitrogen GmbH, Karlsruhe, Germany) and 18 μg/ml of L-proline (Gibco Invitrogen GmbH, Karlsruhe, Germany). On the following day, the cells are charged with 2 μM of Fluo-4 and 0.01% v/v of Pluronic F127 (Molecular Probes Europe BV, Leiden, Netherlands) in HBSS buffer solution (Hank's buffered saline solution, Gibco Invitrogen GmbH, Karlsruhe, Germany) for 30 minutes at 37° C. The plates are then washed three times with HBSS buffer solution and, after incubation for a further 15 minutes at room temperature, used in the FLIPR assay for Ca^2+ measurement. The Ca^2+-dependent fluorescence is measured before and after the addition of test substances (λex=488 nm, λem=540 nm). Quantification is effected by measuring the highest fluorescence intensity (FC, fluorescence counts) over time.
(§4) The FLIPR protocol consists of two additions of test substance. Test substances (10 μM) are first pipetted onto the cells and the Ca^2+ influx is compared with the control (capsaicin 10 μM). This gives the percentage activation, based on the Ca^2+ signal after the addition of 10 μM of capsaicin (CP). After 5 minutes' incubation, 100 nM of capsaicin are applied and the influx of Ca^2+ is likewise determined. Desensitizing agonists and antagonists lead to suppression of the Ca^2+ influx. The percentage inhibition compared with the maximum achievable inhibition is calculated using 10 μM of capsaicin. In order to determine the EC50 values, the substances are added in various concentrations. Determinations are carried out in triplicate (n=3) and these are repeated in at least three independent experiments (N=4).
(§5) The agonist activity or antagonist activity was determined on human and rat vanilloid receptor 1 (VR1/TRPV1 receptor) using the above-described FLIPR assay.

[2] = molecular target: T2, human vanilloid receptor 1 (VR1/TRPV1) (Homo sapiens, UniProt Q8NER1); experiment: FLIPR Ca2+ influx functional study on human vanilloid receptor 1; format: cell-based; details: CHO K1 cells transfected with human VR1; for Emax at 10 µM: test substance 10 μM, Ca2+ signal relative to 10 μM capsaicin, read-out: VR1 (Human) (% Stimulation compared with 10 μM CP)
T2 construct: expressed in transfected cells; host or cells: CHO K1 cells (ECACC)
T2 sequence (Q8NER1 whole entry): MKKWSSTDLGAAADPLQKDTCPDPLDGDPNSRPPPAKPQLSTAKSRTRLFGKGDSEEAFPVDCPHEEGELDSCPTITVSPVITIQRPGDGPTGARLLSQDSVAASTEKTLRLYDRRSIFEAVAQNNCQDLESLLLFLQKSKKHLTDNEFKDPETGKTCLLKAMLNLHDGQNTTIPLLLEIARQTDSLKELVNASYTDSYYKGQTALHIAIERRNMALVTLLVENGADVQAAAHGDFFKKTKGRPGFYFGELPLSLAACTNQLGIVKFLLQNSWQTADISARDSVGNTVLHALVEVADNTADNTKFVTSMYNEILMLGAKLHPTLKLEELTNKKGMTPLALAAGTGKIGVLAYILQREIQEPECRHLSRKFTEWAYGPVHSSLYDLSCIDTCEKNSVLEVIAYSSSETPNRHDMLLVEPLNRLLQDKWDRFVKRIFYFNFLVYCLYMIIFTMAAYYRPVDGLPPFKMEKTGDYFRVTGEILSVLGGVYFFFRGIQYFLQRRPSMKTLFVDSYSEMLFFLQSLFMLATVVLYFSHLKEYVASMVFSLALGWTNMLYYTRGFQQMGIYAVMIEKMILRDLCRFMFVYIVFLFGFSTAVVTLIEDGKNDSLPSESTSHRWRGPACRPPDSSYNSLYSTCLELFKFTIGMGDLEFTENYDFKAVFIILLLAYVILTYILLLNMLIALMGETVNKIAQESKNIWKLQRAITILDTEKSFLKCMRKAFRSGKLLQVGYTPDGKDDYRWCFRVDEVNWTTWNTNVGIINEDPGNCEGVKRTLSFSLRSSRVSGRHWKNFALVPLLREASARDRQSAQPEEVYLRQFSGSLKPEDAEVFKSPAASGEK
From the text: as §1, §2, §3, §4, §5

[3] = tested on: phenylquinone-induced writhing in mice; experiment: Phenylquinone-induced writhing test on mice; format: in vivo, male NMRI mice; details: phenylquinone i.p. 10 min after dose
Procedure: 2. Analgesic Test Using the Writhing Test on Mice
The analysis of analgesic activity in the compounds of the invention of formula is carried out using the phenylquinone-induced writhing assay in mice, modified as described in the article by I. C. Hendershot and J. Forsaith (1959) in J. Pharmacol. Exp. Ther. 125, 237-240. The relevant description is incorporated herein by reference and is to be regarded as part of the present disclosure.
For the present purpose, male NMRI mice are used having a weight of from 25 to 30 g. Groups of 10 animals per substance dose received, 10 minutes after an intravenous dose of test substances, an intraperitoneal administration of 0.3 ml/mouse of a 0.02% strength aqueous solution of phenylquinone(phenylbenzoquinone, obtainable from Sigma, Deisenhofen; solution produced with the addition of 5% of ethanol and storage in a water bath at 45° C.). The animals were placed individually in observation cages. Using a pushbutton counter, the number of pain-induced stretching movements (so-called writhing reactions=straightening of the body accompanied by stretching of the rear extremities) was counted over a period of from 5 to 20 minutes following the administration of phenylquinone. The control is provided by animals receiving only physiological saline. […]

Row | Emax at 10 µM [1] [%] | Emax at 10 µM [2] [%] | EC50 ([1]; FLIPR Ca2+ influx) [nM] | EC50 ([2]; FLIPR Ca2+ influx) [nM] | SMILES | Reduction of Nociceptive Behavior Relative to Controls ([3]; 0.1 mg/kg i.v.) [%] | Reduction of Nociceptive Behavior Relative to Controls ([3]; 0.316 mg/kg i.v.) [%]
1 | 84 | 71 |  |  | CCc1ccc(/C=C/C(=O)NCc2ccc(O)c(OC)c2)cc1 [Example 2, para-ethyl-trans-N-(4-hydroxy-3-methoxybenzyl)-cinnamic acid amide] | 54 | 
2 | 119 | 102 |  |  | CCCc1ccc(/C=C/C(=O)NCc2ccc(O)c(OC)c2)cc1 [Example 5, para-propyl-trans-N-(4-hydroxy-3-methoxybenzyl)-cinnamic acid amide] |  | 55
3 | 132 | 110 |  |  | CCCCc1ccc(/C=C/C(=O)NCc2ccc(O)c(OC)c2)cc1 [Example 8, para-butyl-trans-N-(4-hydroxy-3-methoxybenzyl)-cinnamic acid amide] |  | 

The next lines start with the compound.

Row | SMILES | Emax at 10 µM [1] [%] | Emax at 10 µM [2] [%] | EC50 ([1]; FLIPR Ca2+ influx) [nM] | EC50 ([2]; FLIPR Ca2+ influx) [nM] | Reduction of Nociceptive Behavior Relative to Controls ([3]; 0.1 mg/kg i.v.) [%] | Reduction of Nociceptive Behavior Relative to Controls ([3]; 0.316 mg/kg i.v.) [%]
4 | COc1cc(CNC(=O)/C=C/c2ccc(C)cc2)ccc1O [Example 1, para-methyl-trans-N-(4-hydroxy-3-methoxybenzyl)-cinnamic acid amide] | 92 | 56 |  |  |  | 
5 | COc1cc(CNC(=O)/C=C/c2ccc(C(C)C)cc2)ccc1O [Example 3, para-isopropyl-trans-N-(4-hydroxy-3-methoxybenzyl)-cinnamic acid amide] | 97 | 71 |  |  | 52 | 
6 | COc1cc(CNC(=O)/C=C/c2ccc(C(C)(C)C)cc2)ccc1O [Example 4, para-tert.-Butyl-trans-N-(4-hydroxy-3-methoxybenzyl)-cinnamic acid amide] | 106 | 115 | 0.129 | 0.147 | 63 | 
7 | COc1cc(CNC(=O)/C=C/c2ccc(CC(C)C)cc2)ccc1O [Example 6, para-iso-butyl-trans-N-(4-hydroxy-3-methoxybenzyl)-cinnamic acid amide] | 141 | 103 |  |  | 70 | 
8 | COc1cc(CNC(=O)/C=C/c2ccc(CC(C)(C)C)cc2)ccc1O [Example 7, para-neo-pentyl-trans-N-(4-hydroxy-3-methoxybenzyl)-cinnamic acid amide] | 142 | 102 |  |  |  | 
9 | CCCCCCCCc1ccc(/C=C/C(=O)NCc2ccc(O)c(OC)c2)cc1 [Example 9, para-octyl-trans-N-(4-hydroxy-3-methoxybenzyl)-cinnamic acid amide] | 126 | 97 |  |  | 47 | 
